# Read-outs that look alike come from different tables or passages of the source.
# Tests used:
# Format in all cases: cell-based
# human TLR8 = target: T1, human TLR8 (Homo sapiens, UniProt Q9NR97); assay: TLR8 inhibition reporter assay (HEK-Blue cells, secreted embryonic alkaline phosphatase reporter); settings: HEK-Blue cells overexpressing human TLR8, stimulated with R848 15.9 μM; read-out: TLR 8 IC50
# T1 construct: host or cells: HEK-Blue cells (HEK293-derived reporter line)
# T1 sequence (Q9NR97 27-1041): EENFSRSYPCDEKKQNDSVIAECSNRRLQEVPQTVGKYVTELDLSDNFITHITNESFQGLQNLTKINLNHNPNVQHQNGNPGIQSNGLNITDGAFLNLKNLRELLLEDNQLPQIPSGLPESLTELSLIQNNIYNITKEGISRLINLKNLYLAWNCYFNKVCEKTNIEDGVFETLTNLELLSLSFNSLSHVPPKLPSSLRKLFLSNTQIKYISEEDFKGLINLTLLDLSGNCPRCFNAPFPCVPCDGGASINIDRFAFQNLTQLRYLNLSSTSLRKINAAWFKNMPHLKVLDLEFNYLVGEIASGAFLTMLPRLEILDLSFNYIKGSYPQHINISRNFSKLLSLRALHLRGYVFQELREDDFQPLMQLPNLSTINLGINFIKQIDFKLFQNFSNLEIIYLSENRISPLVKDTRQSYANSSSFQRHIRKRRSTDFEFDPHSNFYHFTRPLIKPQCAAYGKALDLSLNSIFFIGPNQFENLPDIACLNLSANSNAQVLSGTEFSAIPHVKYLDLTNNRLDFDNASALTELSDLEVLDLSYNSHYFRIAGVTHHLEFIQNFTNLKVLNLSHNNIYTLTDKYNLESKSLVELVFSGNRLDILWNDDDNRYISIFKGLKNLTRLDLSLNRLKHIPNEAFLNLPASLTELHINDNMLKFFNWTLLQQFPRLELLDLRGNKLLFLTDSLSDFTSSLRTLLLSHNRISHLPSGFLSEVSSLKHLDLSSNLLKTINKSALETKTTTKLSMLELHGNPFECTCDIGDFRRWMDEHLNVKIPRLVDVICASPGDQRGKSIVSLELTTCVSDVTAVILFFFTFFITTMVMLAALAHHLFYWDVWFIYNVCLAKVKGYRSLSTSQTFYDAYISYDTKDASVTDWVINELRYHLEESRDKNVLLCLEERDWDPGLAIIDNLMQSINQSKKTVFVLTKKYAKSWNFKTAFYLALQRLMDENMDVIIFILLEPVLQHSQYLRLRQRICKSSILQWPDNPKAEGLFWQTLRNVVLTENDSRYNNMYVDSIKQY
# How it was run: (§1)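 HEK-Blue cells overexpressing the respective receptor, with an NF-κB/AP-1-driven SEAP reporter, were pre-treated with compound (0.05 nM–50 μM) for 30 min at room temperature. Stimulation used gardiquimod 7.5 μM (TLR7), R848 15.9 μM (TLR8) or ODN2006 5 nM (TLR9); SEAP was read after 22 h at 37 °C as percent inhibition.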
# human TLR9 = target: T2, human TLR9 (Homo sapiens, UniProt Q9NR96); assay: TLR9 inhibition reporter assay (HEK-Blue cells, secreted embryonic alkaline phosphatase reporter)
# T2 construct: host or cells: HEK-Blue cells (HEK293-derived reporter line)
# T2 sequence (Q9NR96 26-1032): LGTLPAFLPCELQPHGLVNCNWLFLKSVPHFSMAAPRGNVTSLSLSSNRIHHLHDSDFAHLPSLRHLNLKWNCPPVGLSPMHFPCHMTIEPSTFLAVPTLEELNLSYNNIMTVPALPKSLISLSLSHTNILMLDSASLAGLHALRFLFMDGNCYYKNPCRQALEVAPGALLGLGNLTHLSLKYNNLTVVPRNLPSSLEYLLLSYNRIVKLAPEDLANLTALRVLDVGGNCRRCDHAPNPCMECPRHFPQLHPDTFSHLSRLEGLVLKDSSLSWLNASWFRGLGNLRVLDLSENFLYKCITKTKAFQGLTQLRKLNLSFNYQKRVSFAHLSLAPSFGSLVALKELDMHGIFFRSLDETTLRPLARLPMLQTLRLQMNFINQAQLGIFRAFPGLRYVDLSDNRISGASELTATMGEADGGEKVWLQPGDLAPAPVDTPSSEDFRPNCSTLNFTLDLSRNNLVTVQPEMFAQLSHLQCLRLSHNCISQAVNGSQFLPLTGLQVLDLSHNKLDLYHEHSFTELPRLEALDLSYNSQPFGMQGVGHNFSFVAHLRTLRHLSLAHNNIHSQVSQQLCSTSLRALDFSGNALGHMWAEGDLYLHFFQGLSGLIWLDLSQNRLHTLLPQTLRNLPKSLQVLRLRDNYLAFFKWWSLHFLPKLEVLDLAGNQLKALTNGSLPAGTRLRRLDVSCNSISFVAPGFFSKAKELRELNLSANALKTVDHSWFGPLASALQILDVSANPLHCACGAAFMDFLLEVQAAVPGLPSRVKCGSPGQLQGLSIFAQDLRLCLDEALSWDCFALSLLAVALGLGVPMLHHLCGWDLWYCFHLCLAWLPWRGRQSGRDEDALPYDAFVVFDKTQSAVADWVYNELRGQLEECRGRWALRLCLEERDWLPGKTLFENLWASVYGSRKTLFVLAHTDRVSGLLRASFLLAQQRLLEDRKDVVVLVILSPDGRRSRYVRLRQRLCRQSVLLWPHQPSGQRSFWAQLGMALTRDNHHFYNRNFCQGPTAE
# How it was run: as §1
# human TLR7 = target: T3, human TLR7 (Homo sapiens, UniProt Q9NYK1); assay: TLR7 inhibition reporter assay (HEK-Blue cells, secreted embryonic alkaline phosphatase reporter); settings: HEK-Blue cells overexpressing human TLR7, stimulated with gardiquimod 7.5 μM; read-out: TLR 7 IC50
# T3 construct: host or cells: HEK-Blue cells (HEK293-derived reporter line)
# T3 sequence (Q9NYK1 27-1049): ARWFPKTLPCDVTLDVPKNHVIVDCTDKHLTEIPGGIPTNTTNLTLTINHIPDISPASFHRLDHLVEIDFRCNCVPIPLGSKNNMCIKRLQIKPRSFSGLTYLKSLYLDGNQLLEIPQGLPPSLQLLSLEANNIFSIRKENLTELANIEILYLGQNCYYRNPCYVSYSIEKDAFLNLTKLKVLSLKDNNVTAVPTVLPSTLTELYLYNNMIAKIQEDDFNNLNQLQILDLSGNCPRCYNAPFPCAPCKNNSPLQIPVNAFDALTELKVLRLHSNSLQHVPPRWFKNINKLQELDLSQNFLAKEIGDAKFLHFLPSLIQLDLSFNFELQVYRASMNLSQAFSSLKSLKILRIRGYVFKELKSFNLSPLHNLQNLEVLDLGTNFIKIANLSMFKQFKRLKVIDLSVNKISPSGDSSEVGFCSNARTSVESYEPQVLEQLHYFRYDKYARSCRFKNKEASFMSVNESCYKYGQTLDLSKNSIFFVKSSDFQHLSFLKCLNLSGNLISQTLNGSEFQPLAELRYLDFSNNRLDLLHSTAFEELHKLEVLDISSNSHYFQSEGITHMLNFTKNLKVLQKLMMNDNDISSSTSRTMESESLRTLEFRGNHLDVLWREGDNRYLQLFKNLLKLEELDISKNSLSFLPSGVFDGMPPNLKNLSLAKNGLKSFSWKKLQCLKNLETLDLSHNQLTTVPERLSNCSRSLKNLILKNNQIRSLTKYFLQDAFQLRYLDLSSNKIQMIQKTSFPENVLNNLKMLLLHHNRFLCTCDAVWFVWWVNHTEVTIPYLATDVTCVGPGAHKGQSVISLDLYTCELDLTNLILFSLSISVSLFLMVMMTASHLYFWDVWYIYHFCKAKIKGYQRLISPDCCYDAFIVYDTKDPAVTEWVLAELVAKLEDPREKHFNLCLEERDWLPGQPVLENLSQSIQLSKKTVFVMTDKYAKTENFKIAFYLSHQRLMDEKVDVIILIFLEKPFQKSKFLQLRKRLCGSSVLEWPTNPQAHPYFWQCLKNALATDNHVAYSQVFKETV
# How it was run: as §1
# [1] = HEK-Blue cells overexpressing human TLR9, stimulated with ODN2006 5 nM, read-out: TLR 9 IC50
# [2] = HEK-Blue cells overexpressing human TLR9, stimulated with ODN2006 5 nM, 22 hour incubation, reporter readout
# [3] = HEK-Blue human TLR9 reporter cells
IC50 (human TLR8),IC50 (human TLR9),IC50 (human TLR9; [1]),IC50 (human TLR7),IC50 (human TLR9; [2]),IC50 (human TLR9; [3]),SMILES
> 50000 nM,7300 nM,7300 nM,> 50000 nM,,,"Cn1c(-c2ccc(S(C)(=O)=O)cc2)nc2c(F)c(C3CCN(C4CCN(C5COC5)CC4)CC3)ccc21 [Example 186, 4-fluoro-1-methyl-2-(4-(methylsulfonyl)phenyl)-5-(1′-(oxetan-3-yl)-[1,4′-bipiperidin]-4-yl)-1H-benzo[d]imidazole]"
> 50000 nM,57 nM,57 nM,> 50000 nM,,,"Cn1c(-c2ccc(S(C)(=O)=O)cc2)nc2c(F)c(C3CCN(C4CC5CCC(C4)N5C4CCOCC4)CC3)ccc21 (centres unmarked) [Example 198, 4-fluoro-1-methyl-2-(4-(methylsulfonyl)phenyl)-5-(1-(8-(tetrahydro-2H-pyran-4-yl)-8-azabicyclo[3.2.1]octan-3-yl)piperidin-4-yl)-1H-benzo[d]imidazole]"
4600 nM,,357 nM,6600 nM,360 nM,,"COc1ccc(-c2nc3cc(C4CCN(C5CCN(CC(C)C)CC5)CC4)ccc3n2C(C)C)cc1OC [Example 36, 2-(3,4-dimethoxyphenyl)-5-(1′-isobutyl-[1,4′-bipiperidin]-4-yl)-1-isopropyl-1H-benzo[d]imidazole]"
17100 nM,,349 nM,2200 nM,350 nM,,"CN(C)C1CCN(Cc2ccc(-c3ccc4nc(-c5ccc(F)cc5)n(C)c4c3)cc2)CC1 [Example 378, 1-(4-(2-(4-fluorophenyl)-1-methyl-1H-benzo[d]imidazol-6-yl)benzyl)-N,N-dimethylpiperidin-4-amine]"
> 50000 nM,,,3000 nM,48 nM,,"COc1ccc(-c2nc3c(C)cc(C4CCN(C5CCN(C(C)C)CC5)CC4)cc3[nH]2)cc1F [Example 24, 2-(3-fluoro-4-methoxyphenyl)-6-(1′-isopropyl-[1,4′-bipiperidin]-4-yl)-4-methyl-1H-benzo[d]imidazole]"
> 50000 nM,,,6500 nM,25 nM,,"COc1ccc(-c2nc3c(C)cc(C4CCN(C5CC6CCC(C5)N6CC(C)C)CC4)cc3n2C)cc1OC (single isomer, unassigned) [Example 17, 2-(3,4-dimethoxyphenyl)-6-(1-(8-isobutyl-8-azabicyclo[3.2.1]octan-3-yl)piperidin-4-yl)-1,4-dimethyl-1H-benzo[d]imidazole]"
> 50000 nM,,,7700 nM,29 nM,,"COc1ccc(-c2nc3c(C)cc(C4CCN(C5CC6CCC(C5)N6CC(C)C)CC4)cc3n2C)cc1OC (single isomer, unassigned) [Example 18, 2-(3,4-dimethoxyphenyl)-6-(1-(8-isobutyl-8-azabicyclo[3.2.1]octan-3-yl)piperidin-4-yl)-1,4-dimethyl-1H-benzo[d]imidazole]"
2800 nM,,8.1 nM,100 nM,,8.1 nM,"COc1cc(-c2nc3c(C)cc(C4CCN(C5CC6CCC(C5)N6CC5CC5)CC4)cc3n2C)cn2ncnc12 (centres unmarked) [Example 358, 6-(6-(1-(8-(cyclopropylmethyl)-8-azabicyclo[3.2.1]octan-3-yl)piperidin-4-yl)-1,4-dimethyl-1H-benzo[d]imidazol-2-yl)-8-methoxy-[1,2,4]triazolo[1,5-a]pyridine]"
16700 nM,,14 nM,> 50000 nM,,14 nM,"Cn1c(-c2ccc(S(C)(=O)=O)cc2)nc2ccc(C3CCN(C4CCCN(C5CCOCC5)CC4)CC3)c(F)c21 (centres unmarked) [Example 316, 7-fluoro-1-methyl-2-(4-(methylsulfonyl)phenyl)-6-(1-(1-(tetrahydro-2H-pyran-4-yl)azepan-4-yl)piperidin-4-yl)-1H-benzo[d]imidazole]"
> 50000 nM,,,24000 nM,7.6 nM,,"Cc1cc(C2CCN(C3CCN(C(C)C)CC3)CC2)cc2c1nc(-c1ccc(S(C)(=O)=O)cc1)n2C [Example 22, 6-(1′-isopropyl-[1,4′-bipiperidin]-4-yl)-1,4-dimethyl-2-(4-(methylsulfonyl)phenyl)-1H-benzo[d]imidazole]"
> 50000 nM,65 nM,65 nM,18500 nM,,,"CC(C)CN1C2CCC1CC(N1CCC(c3ccc4nc(-c5ccc(S(C)(=O)=O)cc5)[nH]c4c3F)CC1)C2 (single isomer, unassigned) [Example 219, 7-fluoro-6-(1-(8-isobutyl-8-azabicyclo[3.2.1]octan-3-yl)piperidin-4-yl)-2-(4-(methylsulfonyl)phenyl)-1H-benzo[d]imidazole]"
> 50000 nM,150 nM,152 nM,> 50000 nM,,,"Cn1c(-c2ccc(S(C)(=O)=O)cc2)nc2cc(F)c(C3CCN(C4CC5CCC(C4)N5C4COC4)CC3)cc21 (single isomer, unassigned) [Example 234, 5-fluoro-1-methyl-2-(4-(methylsulfonyl)phenyl)-6-(1-(8-(oxetan-3-yl)-8-azabicyclo[3.2.1]octan-3-yl)piperidin-4-yl)-1H-benzo[d]imidazole]"
